These results are taken from US20090215778A1, “Alpha-substituted Arylmethyl Piperazine Pyrazolo [1,5-alpha]Pyrimidine Amide Derivatives” (priority 2007, published 2009).

The structures appear in SMILES notation.

Test [1] concerns the target T1, HIV Env six-helix bundle (6HB) structure (Human immunodeficiency virus type 1 group M subtype B, UniProt P04579).
T1 construct: H9 cells chronically infected with HIV-1 (H9/HIV-1RF); endogenous in cells; host or cells: H9 cells chronically infected with HIV-1 strain RF (Env is made from the virus in the infected cells, not by transfection)
The test is described as follows: Six-helix bundle (6HB) assay. The class given is cell-based, HIV-1 (strain RF). The method, then:
3×10^6H9 cells were incubated with 1 mL of HIV-1 (strain RF) supplemented with 40 μg/mL of DEAE-dextran. Virus and cells were incubated together at 37° C. for 2-4 hours with sporadic shaking to resuspend cells. 10 mL of media (RPMI 1640 containing 10% fetal bovine serum and supplemented with 50 μg/mL gentamicin) was then added and the virus-cell coculture was incubated at 37° C. in a humidified 5% CO2 incubator. 3 days post-infection and every 2-3 days thereafter, the infected H9/HIV-1RF cells were centrifuged, the supernatant was removed, and the cells were resuspended at a density of 0.3×10^6 cells/mL in media (RPMI 1640 containing 10% fetal bovine serum and supplemented with 50 μg/mL gentamicin). Chronically infected H9/HIV-1RF cells were used in experiments starting 12-15 days after infection and up to 40 days post-infection.
This assay determines the effect of compounds on conformational changes in HIV envelope glycoprotein (Env) that are required in order for Env to mediate the fusion of the viral and cellular membranes during virus entry and infection. Specifically, this assay measures the effect of compounds on the formation of the HIV Env six-helix bundle (6HB) structure.
H9 cells chronically infected with HIV-1 (H9/HIV-1RF) were resuspended in Stain/Wash Buffer (1% bovine serum albumin, 0.1% sodium azide in phosphate-buffered saline) and aliquoted at 2.5×10^5 cells per well into 96-well V-bottom plates containing various concentrations of test compounds. Cells and compounds were incubated for 30 minutes at 37° C. Recombinant soluble CD4 (sCD4) was then added to a final concentration of 1 μg/mL. Negative control wells contained no sCD4 and no test compound. Positive control wells contained sCD4 but no test compound. The plate was incubated for 1 hour at 37° C. to allow the sCD4 to bind to HIV Env and induce conformational changes in the Env protein. Antibody that is specific for the HIV Env six-helix bundle conformation was then added (1 μL polyclonal rabbit serum per well), and the plate was incubated for an additional 1 hour at 37° C. to permit antibody binding. The cells were then washed once with Stain/Wash Buffer to remove compound and excess antibody. The cells were resuspended in Stain/Wash Buffer containing PE-labeled anti-rabbit secondary antibody (KPL) at 0.25 μg per well. The cells were incubated for 45 min at 4° C. to permit secondary antibody binding. Fluorescence was detected using a BD FACSArray™ bioanalyzer. Compounds that inhibited Env conformational changes were identified as those that decreased primary antibody binding to the six-helix bundle epitope resulting in a decrease in fluorescence signal.

The next test relates to HIV-1, NL4-3 strain. The test is described as follows: Virus infection assay (virus entry and single-cycle infection). The class given is cell-based. Conditions: Human immunodeficiency virus 1, NL43, TZM-b1, read-out: Nl4. The method, then: TZM-b1 indicator cells were propagated in Dulbecco's Modified Eagle's Medium (DMEM) containing 10% fetal bovine serum (FBS, heat-inactivated) and supplemented with gentamicin (50 ug/mL).
This assay determines the effects of compounds on virus entry and single-cycle infection of cells. In this assay, virus (HIV-1, NL4-3 strain) is added to indicator cells expressing the CD4 receptor and both the CXCR4 and CCR5 co-receptor. The cells contain both a lac Z and a luciferase reporter gene under control of the viral LTR transcription promoter. The cells and virus are incubated together in the presence of various concentrations of test compounds. Successful infection of the cells by the virus permits activation of the reporter gene by the viral Tat transcription factor. The resulting beta-galactosidase or luciferase activity is quantitated using a chemiluminescent substrate and a luminescent plate reader.
Specifically, one day prior to infection, 1.5×10^4 TZM-b1 indicator cells were added to each well of a 96-well microtiter plate. On the day of the experiment, virus (MOI 0.01) in 50 μL of medium (Dulbecco's Modified Eagle's Medium) supplemented with DEAE-dextran at a final concentration of 80 μg/mL was added to cells along with various concentrations of test compound in 50 μL of Dulbecco's Modified Eagle's Medium. Control wells had virus alone. Following a 4 hr incubation at 37° C., complete media [DMEM supplemented with 10% fetal bovine serum (FBS, heat-inactivated) and gentamicin (50 ug/mL)] was added. One day post-infection the level of virus infection was quantitated by detection of β-galactosidase expression using the Gal-Screen system (Applied Biosystems).

T1 sequence (P04579 32-519): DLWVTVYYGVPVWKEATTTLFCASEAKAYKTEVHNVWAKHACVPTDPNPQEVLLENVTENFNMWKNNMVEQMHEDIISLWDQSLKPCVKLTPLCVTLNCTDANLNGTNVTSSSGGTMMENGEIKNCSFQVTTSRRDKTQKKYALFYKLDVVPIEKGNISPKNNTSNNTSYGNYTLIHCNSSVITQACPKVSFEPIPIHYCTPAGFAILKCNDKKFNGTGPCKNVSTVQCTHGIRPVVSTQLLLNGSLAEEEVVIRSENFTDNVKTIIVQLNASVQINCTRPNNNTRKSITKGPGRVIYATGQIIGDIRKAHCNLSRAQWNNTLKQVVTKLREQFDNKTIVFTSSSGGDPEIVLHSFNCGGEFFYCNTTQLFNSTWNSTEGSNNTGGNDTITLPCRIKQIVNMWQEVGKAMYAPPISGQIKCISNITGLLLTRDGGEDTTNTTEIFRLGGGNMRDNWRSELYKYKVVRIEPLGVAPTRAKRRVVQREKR
T1 sequence (P04579 520-865): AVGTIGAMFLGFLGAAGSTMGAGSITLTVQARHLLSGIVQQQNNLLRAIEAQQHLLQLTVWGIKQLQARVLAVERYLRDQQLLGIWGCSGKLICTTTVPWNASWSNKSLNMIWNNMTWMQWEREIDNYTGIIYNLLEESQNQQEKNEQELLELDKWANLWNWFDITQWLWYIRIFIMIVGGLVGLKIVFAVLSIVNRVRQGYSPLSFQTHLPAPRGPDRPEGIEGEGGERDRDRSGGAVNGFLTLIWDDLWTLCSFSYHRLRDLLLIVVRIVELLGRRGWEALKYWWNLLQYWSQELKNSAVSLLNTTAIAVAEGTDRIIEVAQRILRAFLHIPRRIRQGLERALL

On to `COc1ccc(-c2nc3c(C(=O)N4CCN(C(CNC(C)=O)c5ccccc5)C[C@H]4C)cnn3c(C(F)(F)F)c2C)cc1` (stereo partly drawn) [acetamide, N-[2-[(3R)-4-[[5-(4-methoxyphenyl)-6-methyl-7-(trifluoromethyl)pyrazolo[1,5-α]pyrimidin-3-yl]carbonyl]-3-methyl-1-piperazinyl]-2-phenylethyl]-], for which the IC50 was less than 1000 nM in test [1] and less than 1000 nM in the test on HIV-1, NL4-3 strain.
With `COc1ccc(-c2nc3c(C(=O)N4CCN(C(CO)c5cccc(NC(C)=O)c5)C[C@H]4C)cnn3c(C(F)(F)F)c2C)cc1` (stereo partly drawn) [acetamide, N-[3-[2-hydroxy-1-[(3R)-4-[[5-(4-methoxyphenyl)-6-methyl-7-(trifluoromethyl)pyrazolo[1,5-α]pyrimidin-3-yl]carbonyl]-3-methyl-1-piperazinyl]ethyl]phenyl]-], the IC50 was less than 1000 nM in test [1] and less than 1000 nM with HIV-1, NL4-3 strain.
For the compound `COc1ccc(-c2nc3c(C(=O)N4CCN([C@@H](C)c5cccc(NC(C)=O)c5)C[C@H]4C)cnn3c(C(F)(F)F)c2C)cc1` [acetamide, N-[3-[(1S)-1-[(3R)-4-[[5-(4-methoxyphenyl)-6-methyl-7-(trifluoromethyl)pyrazolo[1,5-α]pyrimidin-3-yl]carbonyl]-3-methyl-1-piperazinyl]ethyl]phenyl]-], the IC50 is less than 1000 nM in test [1] and less than 1000 nM in the test on HIV-1, NL4-3 strain.
For `COc1ccc(-c2nc3c(C(=O)N4CCN([C@@H](C)c5ccc(NC(C)=O)cc5)C[C@H]4C)cnn3c(C(F)(F)F)c2C)cc1` [acetamide, N-[4-[(1S)-1-[(3R)-4-[[5-(4-methoxyphenyl)-6-methyl-7-(trifluoromethyl)pyrazolo[1,5-α]pyrimidin-3-yl]carbonyl]-3-methyl-1-piperazinyl]ethyl]phenyl]-], the IC50 in test [1] was greater than 10100 nM; in the test on HIV-1, NL4-3 strain, 1100 to 10000 nM.
Regarding `COc1ccc(-c2nc3c(C(=O)N4CCN(C(CO)c5cccc(CNC(C)=O)c5)C[C@H]4C)cnn3c(C(F)(F)F)c2C)cc1` (stereo partly drawn) [acetamide, N-[[3-[2-hydroxy-1-[(3R)-4-[[5-(4-methoxyphenyl)-6-methyl-7-(trifluoromethyl)pyrazolo[1,5-α]pyrimidin-3-yl]carbonyl]-3-methyl-1-piperazinyl]ethyl]phenyl]methyl]-], the IC50 in test [1] is greater than 10100 nM; with HIV-1, NL4-3 strain, greater than 10100 nM.
For the compound `COc1ccc(-c2nc3c(C(=O)N4CCN(C(CO)c5cccc(C(N)=O)c5)C[C@H]4C)cnn3c(C(F)(F)F)c2C)cc1` (stereo partly drawn) [benzamide, 3-[2-hydroxy-1-[(3R)-4-[[5-(4-methoxyphenyl)-6-methyl-7-(trifluoromethyl)pyrazolo[1,5-α]pyrimidin-3-yl]carbonyl]-3-methyl-1-piperazinyl]ethyl]-], the IC50 is less than 1000 nM in test [1] and less than 1000 nM in the test on HIV-1, NL4-3 strain.
In the case of `COc1ccc(-c2nc3c(C(=O)N4CCN(C(CO)c5cccc(S(N)(=O)=O)c5)C[C@H]4C)cnn3c(C(F)(F)F)c2C)cc1` (stereo partly drawn) [benzenesulfonamide, 3-[2-hydroxy-1-[(3R)-4-[[5-(4-methoxyphenyl)-6-methyl-7-(trifluoromethyl)pyrazolo[1,5-α]pyrimidin-3-yl]carbonyl]-3-methyl-1-piperazinyl]ethyl]-], the IC50 was greater than 10100 nM in test [1] and greater than 10100 nM in the test with HIV-1, NL4-3 strain.
With `COc1ccc(-c2nc3c(C(=O)N4CCN(C(CO)c5ccccc5C#N)C[C@H]4C)cnn3c(C(F)(F)F)c2C)cc1` (stereo partly drawn) [benzonitrile, 2-[2-hydroxy-1-[(3R)-4-[[5-(4-methoxyphenyl)-6-methyl-7-(trifluoromethyl)pyrazolo[1,5-α]pyrimidin-3-yl]carbonyl]-3-methyl-1-piperazinyl]ethyl]-], the IC50 in test [1] was less than 1000 nM; in the test with HIV-1, NL4-3 strain, less than 1000 nM.
In the case of `COc1ccc(-c2nc3c(C(=O)N4CCN([C@@H](C)c5ccccc5C#N)C[C@H]4C)cnn3c(C(F)(F)F)c2C)cc1` [benzonitrile, 2-[(1S)-1-[(3R)-4-[[5-(4-methoxyphenyl)-6-methyl-7-(trifluoromethyl)pyrazolo[1,5-α]pyrimidin-3-yl]carbonyl]-3-methyl-1-piperazinyl]ethyl]-], the IC50 is less than 1000 nM in test [1] and less than 1000 nM with HIV-1, NL4-3 strain.
`COc1ccc(-c2nc3c(C(=O)N4CCN(C(CO)c5cccc(C#N)c5)C[C@H]4C)cnn3c(C(F)(F)F)c2C)cc1` (stereo partly drawn) [benzonitrile, 3-[2-hydroxy-1-[(3R)-4-[[5-(4-methoxyphenyl)-6-methyl-7-(trifluoromethyl)pyrazolo[1,5-α]pyrimidin-3-yl]carbonyl]-3-methyl-1-piperazinyl]ethyl]-]: the IC50 in test [1] is less than 1000 nM; with HIV-1, NL4-3 strain it was less than 1000 nM.
For `COc1ccc(-c2nc3c(C(=O)N4CCN([C@@H](C)c5ccc(C#N)cc5)C[C@H]4C)cnn3c(C(F)(F)F)c2C)cc1` [benzonitrile, 4-[(1S)-1-[(3R)-4-[[5-(4-methoxyphenyl)-6-methyl-7-(trifluoromethyl)pyrazolo[1,5-α]pyrimidin-3-yl]carbonyl]-3-methyl-1-piperazinyl]ethyl]-], the IC50 in test [1] was 1100 to 10000 nM; in the test on HIV-1, NL4-3 strain it was less than 1000 nM.
In the same order, the values of `COc1ccc(-c2nc3c(C(=O)N4CCN(C(CO)c5cccc(NC(=O)OC(C)(C)C)c5)C[C@H]4C)cnn3c(C(F)(F)F)c2C)cc1` (stereo partly drawn) [carbamic acid, N-[3-[2-hydroxy-1-[(3R)-4-[[5-(4-methoxyphenyl)-6-methyl-7-(trifluoromethyl)pyrazolo[1,5-α]pyrimidin-3-yl]carbonyl]-3-methyl-1-piperazinyl]ethyl]phenyl]-, 1,1-dimethylethyl ester] are 1100 to 10000 nM and 1100 to 10000 nM.
For `COc1ccc(-c2nc3c(C(=O)N4CCN([C@@H](C)c5cccc(NC(=O)OC(C)(C)C)c5)C[C@H]4C)cnn3c(C(F)(F)F)c2C)cc1` [carbamic acid, N-[3-[(1S)-1-[(3R)-4-[[5-(4-methoxyphenyl)-6-methyl-7-(trifluoromethyl)pyrazolo[1,5-α]pyrimidin-3-yl]carbonyl]-3-methyl-1-piperazinyl]ethyl]phenyl]-, 1,1-dimethylethyl ester], the IC50 in test [1] was 1100 to 10000 nM; with HIV-1, NL4-3 strain, greater than 10100 nM.
The corresponding values for `COc1ccc(-c2nc3c(C(=O)N4CCN([C@@H](C)c5ccc(NC(=O)OC(C)(C)C)cc5)C[C@H]4C)cnn3c(C(F)(F)F)c2C)cc1` [carbamic acid, N-[4-[(1S)-1-[(3R)-4-[[5-(4-methoxyphenyl)-6-methyl-7-(trifluoromethyl)pyrazolo[1,5-α]pyrimidin-3-yl]carbonyl]-3-methyl-1-piperazinyl]ethyl]phenyl]-, 1,1-dimethylethyl ester] are greater than 10100 nM and less than 1000 nM.
The corresponding values for `COc1ccc(-c2nc3c(C(=O)N4CCN(C(CO)c5ccccc5NC(=O)C5CC5)C[C@H]4C)cnn3c(C(F)(F)F)c2C)cc1` (stereo partly drawn) [cyclopropanecarboxamide, N-[2-[2-hydroxy-1-[(3R)-4-[[5-(4-methoxyphenyl)-6-methyl-7-(trifluoromethyl)pyrazolo[1,5-α]pyrimidin-3-yl]carbonyl]-3-methyl-1-piperazinyl]ethyl]phenyl]-] are greater than 10100 nM and greater than 10100 nM.
